Patent publication US11679107B2 (Eisai R&D Management Co., Ltd., priority 2018, dated 2023)
Where two headings read alike, the source gives them in different places.

Tests used:
[1] = system: Ad2 variant pre-mRNAs spliced in HeLa S3 nuclear extracts; assay: In vitro splicing assay (IVS), RT-qPCR of spliced product; type: biochemical; conditions: for IC50: geometric mean
Procedure, shortened: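 Read-out is one-step TaqMan RT-qPCR of spliced Ad2 mRNA with Ftz as reference, normalized to DMSO and fit by non-linear regression. Reactions held HeLa S3 nuclear extract, 2 ng Ad2-derived pre-mRNA and test compound, with 15 min preincubation. Splicing was started with ATP-containing activation buffer and run 90 min at 30 °C.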

SF3b complexes = biological target: T1, SF3b complexes (Homo sapiens, UniProt O75533+Q7RTV0); assay: Scintillation proximity assay (SPA) with [3H]-labelled pladienolide probe; type: binding; conditions: SF3B1 (WT); geometric mean; read-out: SPA-ATS GMean IC50 (nM) SF3B1 (WT)
T1 construct: endogenous in cells; host or cells: Nuclear extracts; A HeLa S3 extract preparation is described for the in vitro splicing assay
Procedure, shortened: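 SF3b complexes captured from nuclear extracts on anti-SF3B1 antibody SPA beads; test compounds pre-incubated 30 min before 2.5 nM [3H]-pladienolide probe added, then 30 min incubation. Bound probe read by scintillation; values from non-linear regression of concentration–response curves.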

[2] = system: NCI-H1568 cells (high MCL1); assay: Cell proliferation and viability, CellTiter-Glo, 72 hours; type: cell-based; conditions: for GI50: geometric mean
Procedure, shortened: (§1)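 ATP luminescence (CellTiter-Glo) was measured 72 h after treatment with compound at 10 μM–100 pM (11 points, half-log) in 0.1% DMSO. The Panc line was grown in RPMI-1640 plus insulin and 15% FBS, the other in 10% FBS. Data were normalised to time zero and vehicle controls, where −100% is cidal and 0% static.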

[3] = system: Panc 05.04 cells (SF3b K700E mutant); assay: as above; type: cell-based; conditions: for GI50: geometric mean
Procedure, shortened: as §1

[4] = Ad2.1 pre-mRNA substrate, read-out: qPCR-IVS-ATS GMean IC50 (nM) Ad2.1
[5] = Ad2.2 pre-mRNA substrate, read-out: qPCR-IVS-ATS GMean IC50 (nM) Ad2.2
[6] = NCI-H1568, read-out: CTGlo-ATS GMean GI50 (nM) 72 h NCIH1568.1, NCIH1568.1 cells, 72 h
[7] = NCIH1568.1 cells, 72 h, −100% cidal, 0% static, 100% maximal growth
[8] = PANC0504.1 cells, 72 h, −100% cidal, 0% static, 100% maximal growth
[9] = Panc 05.04, read-out: CTGlo-ATS GMean GI50 (nM) 72 h PANC0504.1, PANC0504.1 cells, 72 h

Structure (SMILES)	IC50 [1, 4] [nM]	IC50 [1, 5] [nM]	IC50 (SF3b complexes) [nM]	GI50 [2, 6] [nM]	CTGlo-ATS Mean MinResponse % 72 h NCIH1568.1 [2, 7] [%]	CTGlo-ATS Mean MinResponse % 72 h PANC0504.1 [3, 8] [%]	GI50 [3, 9] [nM]	Ratio Ad2.1/2.2 ([1]; ratio of IVS IC50 Ad2.1 to Ad2.2)	CTGlo-ATS Mean MinResponse % 72 h NCIH1568.1 ([2]; 72 h, NCIH1568.1, -100% = cidal, 0% = static, 100% = uninhibited growth) [%]	GI50 ([2]; NCI-H1568, 72 h, read-out: CTGlo-ATS GMean GI50 (nM) 72 h NCIH1568.1, 72 h, NCIH1568.1) [nM]	CTGlo-ATS Mean MinResponse % 72 h PANC0504.1 ([3]; 72 h, PANC0504.1, -100% = cidal, 0% = static, 100% = uninhibited growth) [%]	GI50 ([3]; Panc 05.04, 72 h, read-out: CTGlo-ATS GMean GI50 (nM) 72 h PANC0504.1, 72 h, PANC0504.1) [nM]
C/C(=C\c1cc(F)cc(N2CC[C@H](N(C)C)C2)c1)[C@H]1OC(=O)C[C@H](O)CC[C@H](C)[C@@H](OC(=O)N2CCN(C)CC2)/C=C/[C@@H]1C [Compound 17]	46.8	34	10.7	53.4	−87.647	−72.749	57.8					
C/C(=C\c1cc(F)c2cnn(CC(=O)N(C)C)c2c1)[C@H]1OC(=O)C[C@H](O)CC[C@H](C)[C@@H](OC(=O)N2CCN(C)CC2)/C=C/[C@@H]1C [Compound 132]	34.1	12.8	4.91	11.5	−68.423	−94.673	13.6					
C/C(=C\c1cc(F)cc(N2CCOCC2)c1)[C@H]1OC(=O)C[C@H](O)CC[C@H](C)[C@@H](OC(=O)N2CCN(CCO)CC2)/C=C/[C@@H]1C [Compound 21]	1610	52.3	10.3	31.2	−50.841	−90.919	23.6					
C/C(=C\c1cc(F)cc(S(=O)(=O)N2CCCC2)c1)[C@H]1OC(=O)C[C@H](O)CC[C@H](C)[C@@H](OC(=O)N2CCN(C)CC2)/C=C/[C@@H]1C [Compound 197, [(2S,3S,4E,6R,7S,10R)-2-[(E)-1-(3-fluoro-5-pyrrolidin-1-ylsulfonylphenyl)prop-1-en-2-yl]-10-hydroxy-3,7-dimethyl-12-oxo-1-oxacyclododec-4-en-6-yl] 4-methylpiperazine-1-carboxylate]	98.5	22.8	2.67					4.318	−69.290	4.69	−91.100	3.53
C/C(=C\c1cc(F)cc(N2CCOCC2)c1)[C@H]1OC(=O)C[C@H](O)CC[C@H](C)[C@@H](OC(=O)N2CCN(CC(F)(F)F)CC2)/C=C/[C@@H]1C [Compound 92, [(2S,3S,4E,6R,7S,10R)-2-[(E)-1-(3-fluoro-5-morpholin-4-ylphenyl)prop-1-en-2-yl]-10-hydroxy-3,7-dimethyl-12-oxo-1-oxacyclododec-4-en-6-yl] 4-(2,2,2-trifluoroethyl)piperazine-1-carboxylate]	> 25000	664	80	401	−3.918	−37.359	433					
C/C(=C\c1cc(F)c2nnn(C3CCOCC3)c2c1)[C@H]1OC(=O)C[C@H](O)CC[C@H](C)[C@@H](OC(=O)N2CCN(C)CC2)/C=C/[C@@H]1C [Compound 140]	11.6	11.8	1.73	1.25	−82.434	−80.398	1.63					
C/C(=C\c1cc(F)c2cnn(CC3CC3)c2c1)[C@H]1OC(=O)C[C@H](O)CC[C@H](C)[C@@H](OC(=O)N2CCN(C)CC2)/C=C/[C@@H]1C [Compound 87, [(2S,3S,4E,6R,7S,10R)-2-[(E)-1-[1-(cyclopropylmethyl)-4-fluoroindazol-6-yl]prop-1-en-2-yl]-10-hydroxy-3,7-dimethyl-12-oxo-1-oxacyclododec-4-en-6-yl] 4-methylpiperazine-1-carboxylate]	62.7	27	4.98	3.68	−85.463	−79.550	4.19					
